What was measured:
[1] = tested on: Kv1.1 mutant mice; experiment: Neural damage in the hippocampus assessed with FluoroJade B staining after systemic treatment; assay type: in vivo, mouse; conditions: blood flow suppressor 7-nitroindazole 50 mg/kg IP; blood flow enhancer acetazolamide 30 mg/kg IP
Protocol: Ictal hyperemia and/or ischemia leads to neuronal damage. The contribution of ictal blood flow to neural damage (assessed with Fluorojade B staining) is determined by measuring the neural damage in the hippocampus, as a function of systemic treatment with a blood flow suppressor (e.g., 7-nitroindazole; 50 mg/kg IP) and a blood flow enhancer (e.g., acetazolamide; 30 mg/kg IP).
Ictal hyperemia and/or ischemia leads to neuronal damage. The contribution of ictal blood flow to neural damage is assessed with FluoroJade B staining to measure the neural damage in the hippocampus, as a function of systemic treatment with a blood flow suppressor (7-nitroindazole; 50 mg/kg IP) and enhancer (acetazolamide; 30 mg/kg IP).
Ten minutes before imaging blood flow, drugs will be administered by IP injection at a volume of 0.01 ml per g of body weight. […]
The staining solution is made with 0.01% stock solution of FluoroJade B (Histo-Chem. Inc., Jefferson Ark.) in distilled water (final dye concentration of 0.0004%). […] The tissue representing the hippocampus is then examined using epifluorescence microscopy with blue (450-490 nm) excitation light: the position of the imaging focus is localized by the red Di-I track from the cannula, and neuronal damage is assessed by FluoroJade B staining colored green. […]

[2] = tested on: Kv1.1 mutants; conditions: 30 mg/kg IP; cited from earlier work
[3] = tested on: seizures; conditions: in vivo; cited from earlier work
[4] = tested on: C3Heb/FeJ strain of Kv1.1 knockouts; experiment: Status epilepticus induced with kainate, three-stage injection protocol; assay type: in vivo, mouse
Protocol: A three-stage injection protocol is employed to induce status epilepticus with kainate. Mice are given 10 mg/kg (in pH 7.4 saline) of kainate subcutaneously, after which they begin electroclinical seizure activity. An additional 5 mg/kg is administered 30 minutes after behavioral seizure initiation, followed by another 5 mg/kg dose sc after another 30 minutes. This protocol has previously provided a high survivability rate (greater than 90%) in the C3Heb/FeJ strain of Kv1.1 knockouts, and to moreover sustain the status for at least a 2-hour duration. Behavioral seizure scoring is conducted using a modified Racine scale, and cumulative seizure scores are generated for each animal (a seizure score is given every minute, with the highest numerical value based on the Racine scale; then the cumulative score is generated by adding all the individual scores for each minute of seizure activity).

[5] = kainate 10 mg/kg sc, then 5 mg/kg and 5 mg/kg at 30 minute intervals

SMILES | neural damage in the hippocampus (FluoroJade B staining) [1] | effect on blood flow [2] | effect on seizures [3] | duration of sustained status epilepticus [4, 5] [h] | survivability rate [4, 5] | neural damage after kainate-induced status epilepticus (FIGS. 6A-6B) ([4]; mouse, FluoroJade B)
O=[N+]([O-])c1cccc2cn[nH]c12 [7-nitroindazole] | less neural damage | – | – | – | – | –
CC(=O)Nc1nnc(S(N)(=O)=O)s1 [acetazolamide] | increased neural damage | increased blood flow | reduce seizures | – | – | –
C=C(C)[C@H]1CN[C@H](C(=O)O)[C@H]1CC(=O)O [kainate] | – | – | – | ≥ 2 | greater than 90% | statistically significant effects of neural damage
